Assay: Inhibition of ERK phosphorylation at Thr202/Tyr204 residues in human ASPC1 cells harboring KRAS G12D mutant […] incubated for 24 hrs by ELISA
Assay type: cell-based
Details: ASPC1, 24 h

In the case of CCSc1nc(N2C[C@@H]3C[C@H]2CN3C(=O)OC(C)(C)C)c2cc(C3CC3)c(Br)c(OCc3ccccc3)c2n1, the IC50 is reported as 0.026 µM.

In the case of CCSc1nc(N2C[C@@H]3C[C@H]2CN3C(=O)OC(C)(C)C)c2cc(I)c(Br)c(OCc3ccccc3)c2n1, the IC50 is reported as 0.017 µM.

For Cc1ncsc1-c1ccc(C2(NC(=O)[C@@H]3C[C@@H](O)CN3C(=O)[C@H](C(C)C)n3cc(-c4ccc(COc5c(-c6c(C)c(F)cc7c6cnn7C6CCCCO6)c(C6CC6)cc6c(N7C[C@@H]8C[C@H]7CN8C(=O)OC(C)(C)C)nc(OC7CCOCC7)nc56)cc4)nn3)CC2)cc1 (stereo partly drawn), the IC50 was 0.007 µM.

With Cc1c(F)cc2c(cnn2C2CCCCO2)c1-c1c(C2CC2)cc2c(N3C[C@@H]4C[C@H]3CN4C(=O)OC(C)(C)C)nc(OC3COC3)nc2c1OCc1ccccc1 (stereo partly drawn) the IC50 was 0.006 µM.

In the case of Cc1c(F)cc2c(cnn2C2CCCCO2)c1-c1c(C2CC2)cc2c(N3C[C@@H]4C[C@H]3CN4C(=O)OC(C)(C)C)nc(OC3CCOCC3)nc2c1OCc1ccc(-c2cn([C@H](C(=O)N3C[C@H](O)C[C@H]3C(=O)N[C@H](CO)c3ccc(-c4ccnn4C)cc3)C(C)C)nn2)cc1 (stereo partly drawn), the IC50 is reported as 0.011 µM.

With CC(C)(C)OC(=O)N1C[C@@H]2C[C@H]1CN2c1nc(OC2CCOCC2)nc2c(OCc3ccccc3)c(Br)c(C3CC3)cc12 the IC50 was 0.015 µM.

Compound CCCCCCCCCCCCSc1nc(N2C[C@@H]3C[C@H]2CN3C(=O)OC(C)(C)C)c2cc(C3CC3)c(Br)c(OCc3ccccc3)c2n1 has an IC50 of 0.018 µM.

For Cc1ncsc1-c1ccc([C@@H](CO)NC(=O)[C@@H]2C[C@@H](O)CN2C(=O)[C@H](C(C)C)n2cc(-c3ccc(COc4c(-c5c(C)c(F)cc6c5cnn6C5CCCCO5)c(C5CC5)cc5c(N6C[C@@H]7C[C@H]6CN7C(=O)OC(C)(C)C)nc(OC6CCOCC6)nc45)cc3)nn2)cc1 (stereo partly drawn), the IC50 was 0.008 µM.
